pEC50: −log10 of the molar value.
System: not given
Assay: not given
Details: intravenous (IV) formulation; cited from earlier work

Row | Compound | first-phase pharmacokinetic half-life [min]
1 | Serelaxin | 5.4

Target: human RXFP1 (Homo sapiens (Human), UniProt Q9HBX9)
Assay: hRXFP1 HEK293 cAMP assay
Assay type: cell-based
Details: HEK293 cells stably expressing human RXFP1; 30 min at room temperature; HTRF cAMP
Method: RXFP1 Cyclic Adenosine Monophosphate (CAMP) Assays. Human embryonic kidney cells 293 (HEK293) cells and HEK293 cells stably expressing human RXFP1, were cultured in MEM medium supplemented with 10% qualified FBS, and 300 μg/ml hygromycin (Life Technologies). Cells were dissociated and suspended in assay buffer. The assay buffer was HBSS buffer (with calcium and magnesium) containing 20 mM HEPES, 0.05% BSA, and 0.5 mM IBMX. Cells (3000 cells per well, except 1500 cell per well for HEK293 cells stably expressing human RXFP1) were added to 384-well Proxiplates (Perkin-Elmer). Cells were immediately treated with test compounds in DMSO (2% final) at final concentrations in the range of 0.010 nM to 50 μM. Cells were incubated for 30 min at room temperature. The level of intracellular cAMP was determined using the HTRF HiRange CAMP assay reagent kit (Cisbio) according to manufacturer's instructions. Solutions of cryptate conjugated anti-cAMP and d2 fluorophore-labelled cAMP were made in a supplied lysis buffer separately. Upon completion of the reaction, the cells were lysed with equal volume of the d2-cAMP solution and anti-cAMP solution. After a 1 h room temperature incubation, time-resolved fluorescence intensity was measured using the Envision (Perkin-Elmer) at 400 nm excitation and dual emission at 590 nm and 665 nm. A calibration curve was constructed with an external cAMP standard at concentrations ranging from 2.7 μM to 0.1 μM by plotting the fluorescent intensity ratio from 665 nm emission to the intensity from the 590 nm emission against cAMP concentrations. The potency and activity of a compound to […] cAMP production was then determined by fitting to a 4-parametric logistic equation from a plot of cAMP level versus compound concentrations.
The examples disclosed below were tested in the human RXFP1 (hRXFP1) HEK293 cAMP assay described above and found to have agonist activity. Table A lists EC50 values in the hRXFP1 HEK293 cAMP assay measured for the examples.

Chain of human RXFP1 (Q9HBX9 whole entry): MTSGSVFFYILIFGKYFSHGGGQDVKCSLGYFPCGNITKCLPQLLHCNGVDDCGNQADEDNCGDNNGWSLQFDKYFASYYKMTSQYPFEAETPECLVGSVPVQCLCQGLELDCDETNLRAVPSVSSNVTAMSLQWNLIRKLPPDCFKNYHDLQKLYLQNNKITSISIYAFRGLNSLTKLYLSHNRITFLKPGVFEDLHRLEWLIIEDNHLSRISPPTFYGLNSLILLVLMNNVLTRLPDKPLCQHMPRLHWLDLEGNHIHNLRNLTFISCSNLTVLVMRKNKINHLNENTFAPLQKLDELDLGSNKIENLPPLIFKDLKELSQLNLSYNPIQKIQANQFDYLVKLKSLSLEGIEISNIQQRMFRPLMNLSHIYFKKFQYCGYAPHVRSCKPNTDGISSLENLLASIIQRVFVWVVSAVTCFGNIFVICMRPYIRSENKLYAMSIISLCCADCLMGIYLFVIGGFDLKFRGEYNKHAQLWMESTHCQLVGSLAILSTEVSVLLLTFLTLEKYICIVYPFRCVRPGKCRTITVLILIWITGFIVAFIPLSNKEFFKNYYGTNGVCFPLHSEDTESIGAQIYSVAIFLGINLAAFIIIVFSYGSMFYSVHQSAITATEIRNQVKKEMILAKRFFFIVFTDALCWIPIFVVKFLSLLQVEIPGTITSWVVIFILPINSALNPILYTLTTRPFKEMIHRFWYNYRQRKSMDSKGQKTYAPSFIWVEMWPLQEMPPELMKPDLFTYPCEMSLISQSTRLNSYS

Row | Compound | pEC50
2 | COc1ccc(-c2cc(C(=O)O)ccc2F)cc1C(=O)N[C@H]1[C@@H]2CCC[C@@H]2[C@H]1C(=O)Nc1ccc(F)c(C(F)(F)F)c1 [Example 1, 6-fluoro-3′-(((1S,5R,6S,7R)-7-((4-fluoro-3-(trifluoromethyl)phenyl)carbamoyl)bicyclo[3.2.0]heptan-6-yl)carbamoyl)-4′-methoxy-[1,1′-biphenyl]-3-carboxylic acid] | 5.92
3 | COc1ccc(-c2cc(C(OC(=O)Nc3ccccc3)C(=O)O)ccc2F)cc1C(=O)N[C@H]1[C@@H]2CCC[C@@H]2[C@H]1C(=O)Nc1ccc(F)c(C(F)(F)F)c1 (stereo partly drawn) [Example 7, 2-(6-fluoro-3′-(((1S,5R,6S,7R)-7-((4-fluoro-3-(trifluoromethyl)phenyl)carbamoyl)bicyclo[3.2.0]heptan-6-yl)carbamoyl)-4′-methoxy-[1,1′-biphenyl]-3-yl)-2-((phenylcarbamoyl)oxy) acetic acid] | 7.92

Other lines, results leading:

Row | pEC50 | Compound
4 | 6.08 | COc1ccc(C#CCO)cc1C(=O)N[C@H]1[C@@H]2CCC[C@@H]2[C@H]1C(=O)Nc1ccc(F)c(C(F)(F)F)c1 [Example 2, (1R,5S,6R,7S)—N-(4-fluoro-3-(trifluoromethyl)phenyl)-7-(5-(3-hydroxyprop-1-yn-1-yl)-2-methoxybenzamido) bicyclo[3.2.0]heptane-6-carboxamide]
5 | 6.04 | COc1ccc(C2=NOC3CC(O)CC23)cc1C(=O)NC1C2CCCC2C1C(=O)Nc1ccc(F)c(C(F)(F)F)c1 [Example 3, (1R,5S,6R,7S)-N-(4-fluoro-3-(tri-fluoromethyl)-phenyl)-7-(5-(5-hydroxy-3a,5,6,6a-tetrahydro-4H-cyclopenta[d]isox-azol-3-yl)-2-meth-oxybenzamido)-bicyclo[3.2.0] heptane-6-carbox-amide]
6 | 5.65 | COc1ccc(C2=NOC(CO)C2)cc1C(=O)NC1C2CCCC2C1C(=O)Nc1ccc(F)c(C(F)(F)F)c1 [Example 5, (1R,5S,6R,7S)-N-(4-fluoro-3-(tri-fluoromethyl)-phenyl)-7-(5-(5-(hydroxymethyl)-4,5-dihydroisox-azol-3-yl)-2-meth-oxybenzamido)-bicyclo[3.2.0] heptane-6-carbox-amide]

Source: patent US20250049765A1, “BICYCLO [3.2.0] HEPTANE BIS(AMIDE) RXFP1 AGONISTS” (BRISTOL-MYERS SQUIBB COMPANY, priority 2021, published 2025)
